The NIST ThermoML archive (doi:10.1021/je500381c)

Test: xn = mol fraction of the nth substance listed
Conditions: for mass density / viscosity: 100 kPa, Liquid; for mass density: Vibrating tube method; for surface tension liquid-gas: Drop volume

CC12CC3CC(C)(C1)CC(C)(C3)C2 [1,3,5-trimethyladamantane] + OCC1CCCCC1
Conditions | mass density [kg/m3] | surface tension liquid-gas [mN/m] | viscosity [mPa·s]
293.15 K, x2 = 0 | 887.48 | – | 2.601
293.15 K, x2 = 0.1 | 889.7 | – | 2.872
293.15 K, x2 = 0.2001 | 892.4 | – | 3.328
293.15 K, x2 = 0.2997 | 895.41 | – | 3.955
293.15 K, x2 = 0.4 | 898.82 | – | 4.859
293.15 K, x2 = 0.4994 | 902.62 | – | 6.211
293.15 K, x2 = 0.5991 | 906.88 | – | 8.288
293.15 K, x2 = 0.7 | 911.64 | – | 11.51
293.15 K, x2 = 0.801 | 917.1 | – | 16.66
293.15 K, x2 = 0.8927 | 922.52 | – | 24.62
298.15 K, x2 = 0 | 883.99 | 26.17 | 2.338
298.15 K, x2 = 0.1 | 886.13 | 26.18 | 2.55
298.15 K, x2 = 0.2001 | 888.82 | 26.4 | 2.939
298.15 K, x2 = 0.2997 | 891.83 | 26.77 | 3.455
298.15 K, x2 = 0.4 | 895.23 | 27.22 | 4.184
298.15 K, x2 = 0.4994 | 899.02 | 27.65 | 5.256
298.15 K, x2 = 0.5991 | 903.29 | 28.16 | 6.866
298.15 K, x2 = 0.7 | 908.13 | 28.88 | 9.343
298.15 K, x2 = 0.801 | 913.53 | 29.74 | 13.22
298.15 K, x2 = 0.8927 | 918.95 | 30.63 | 19.19
303.15 K, x2 = 0 | 880.47 | – | 2.118
303.15 K, x2 = 0.1 | 882.54 | – | 2.297
303.15 K, x2 = 0.2001 | 885.21 | – | 2.615
303.15 K, x2 = 0.2997 | 888.21 | – | 3.041
303.15 K, x2 = 0.4 | 891.61 | – | 3.639
303.15 K, x2 = 0.4994 | 895.4 | – | 4.492
303.15 K, x2 = 0.5991 | 899.66 | – | 5.76
303.15 K, x2 = 0.7 | 904.52 | – | 7.681
303.15 K, x2 = 0.801 | 909.91 | – | 10.65
303.15 K, x2 = 0.8927 | 915.34 | – | 15.28
308.15 K, x2 = 0 | 876.94 | – | 1.93
308.15 K, x2 = 0.1 | 878.93 | – | 2.072
308.15 K, x2 = 0.2001 | 881.59 | – | 2.336
308.15 K, x2 = 0.2997 | 884.59 | – | 2.694
308.15 K, x2 = 0.4 | 887.97 | – | 3.187
308.15 K, x2 = 0.4994 | 891.76 | – | 3.876
308.15 K, x2 = 0.5991 | 896.02 | – | 4.884
308.15 K, x2 = 0.7 | 900.87 | – | 6.386
308.15 K, x2 = 0.801 | 906.27 | – | 8.659
308.15 K, x2 = 0.8927 | 911.73 | – | 12.26
313.15 K, x2 = 0 | 873.4 | – | 1.765
313.15 K, x2 = 0.1 | 875.32 | – | 1.878
313.15 K, x2 = 0.2001 | 877.95 | – | 2.1
313.15 K, x2 = 0.2997 | 880.94 | – | 2.402
313.15 K, x2 = 0.4 | 884.32 | – | 2.811
313.15 K, x2 = 0.4994 | 888.09 | – | 3.371
313.15 K, x2 = 0.5991 | 892.35 | – | 4.181
313.15 K, x2 = 0.7 | 897.2 | – | 5.366
313.15 K, x2 = 0.801 | 902.61 | – | 7.126
313.15 K, x2 = 0.8927 | 908.08 | – | 9.952
318.15 K, x2 = 0 | 869.86 | – | 1.621
318.15 K, x2 = 0.1 | 871.69 | – | 1.71
318.15 K, x2 = 0.2001 | 874.3 | – | 1.898
318.15 K, x2 = 0.2997 | 877.27 | – | 2.151
318.15 K, x2 = 0.4 | 880.63 | – | 2.494
318.15 K, x2 = 0.4994 | 884.4 | – | 2.954
318.15 K, x2 = 0.5991 | 888.66 | – | 3.609
318.15 K, x2 = 0.7 | 893.49 | – | 4.552
318.15 K, x2 = 0.801 | 898.9 | – | 5.932
318.15 K, x2 = 0.8927 | 904.4 | – | 8.189
323.15 K, x2 = 0 | 866.31 | – | 1.494
323.15 K, x2 = 0.1 | 868.04 | – | 1.564
323.15 K, x2 = 0.2001 | 870.63 | – | 1.723
323.15 K, x2 = 0.2997 | 873.58 | – | 1.936
323.15 K, x2 = 0.4 | 876.93 | – | 2.224
323.15 K, x2 = 0.4994 | 880.69 | – | 2.604
323.15 K, x2 = 0.5991 | 884.94 | – | 3.14
323.15 K, x2 = 0.7 | 889.76 | – | 3.899
323.15 K, x2 = 0.801 | 895.17 | – | 4.99
323.15 K, x2 = 0.8927 | 900.68 | – | 6.785
328.15 K, x2 = 0 | 862.76 | – | 1.384
328.15 K, x2 = 0.1 | 864.39 | – | 1.435
328.15 K, x2 = 0.2001 | 866.94 | – | 1.569
328.15 K, x2 = 0.2997 | 869.86 | – | 1.752
328.15 K, x2 = 0.4 | 873.2 | – | 1.994
328.15 K, x2 = 0.4994 | 876.94 | – | 2.311
328.15 K, x2 = 0.5991 | 881.18 | – | 2.751
328.15 K, x2 = 0.7 | 885.99 | – | 3.367
328.15 K, x2 = 0.801 | 891.4 | – | 4.238
328.15 K, x2 = 0.8927 | 896.92 | – | 5.705
333.15 K, x2 = 0 | 859.2 | – | 1.284
333.15 K, x2 = 0.1 | 860.72 | – | 1.322
333.15 K, x2 = 0.2001 | 863.23 | – | 1.436
333.15 K, x2 = 0.2997 | 866.13 | – | 1.59
333.15 K, x2 = 0.4 | 869.45 | – | 1.797
333.15 K, x2 = 0.4994 | 873.17 | – | 2.061
333.15 K, x2 = 0.5991 | 877.4 | – | 2.426
333.15 K, x2 = 0.7 | 882.2 | – | 2.93
333.15 K, x2 = 0.801 | 887.6 | – | 3.632
333.15 K, x2 = 0.8927 | 893.12 | – | 4.772
